Data: patent publication US12428406B2 (PMV Pharmaceuticals, Inc., priority 2019, dated 2025)

What follows are compounds tested against T1, p53 Y220C (Homo sapiens, UniProt P04637, Y220C) (assay: In vitro DNA binding activity assay (HTRF / TR-FRET): stabilization of p53 Y220C and increase of its DNA binding activity). Details: recombinant His-tagged p53 Y220C DNA binding domain (aa 94-312), biotin-labeled consensus DNA, incubated at 27° C. or 29° C. for 60 min.
T1 construct: The recombinant protein was a truncation mutant containing only amino acids 94-312 of p53; made in house; host or cells: E. coli
T1 sequence (P04637 94-312, change not shown): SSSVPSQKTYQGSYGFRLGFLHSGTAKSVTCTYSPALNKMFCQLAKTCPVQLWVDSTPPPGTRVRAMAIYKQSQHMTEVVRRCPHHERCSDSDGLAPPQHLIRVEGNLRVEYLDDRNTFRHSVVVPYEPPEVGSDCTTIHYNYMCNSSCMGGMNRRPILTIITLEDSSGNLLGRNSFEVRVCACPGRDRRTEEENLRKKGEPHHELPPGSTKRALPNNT
Assay type: biochemical
Method in brief: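 Compounds from 4.5 mM DMSO stocks, 3-fold serial dilutions; room-temperature incubations of 15 and 20 min. SC150 = concentration raising DNA binding by 50% over no-compound control.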

Row | SMILES | SC150 (concentration of the compound required to increase the DNA binding activity by 50%)
1 | CCS(=O)(=O)c1ccc(NCC#Cc2cc3c(N[C@@H]4CCN(C(=O)OC(C)(C)C)C[C@@H]4F)cccc3n2CC(F)(F)F)c(OC)c1 [Compound 922A, tert-butyl (3S,4R)-4-{[2-(3-{[4-(ethanesulfonyl)-2-methoxyphenyl]amino}prop-1-yn-1-yl)-1-(2,2,2-trifluoroethyl)-1H-indol-4-yl]amino}-3-fluoropiperidine-1-carboxylate] | ++ (++ = 0.05 μM ≤ SC150 < 0.1 μM)
2 | COc1cc(C(=O)NCCN2CCOCC2)ccc1NCC#Cc1cc2c(N[C@@H]3CCN(C)C[C@@H]3F)cccc2n1CC(F)(F)F [Compound 924A, 4-{[3-(4-{[(3S,4R)-3-fluoro-1-methylpiperidin-4-yl]amino}-1-(2,2,2-trifluoroethyl)-1H-indol-2-yl)prop-2-yn-1-yl]amino}-3-methoxy-N-[2-(morpholin-4-yl)ethyl]benzamide] | + (+ = 0 μM ≤ SC150 < 0.05 μM)
3 | COc1cc(C(=O)O)ccc1NCC#Cc1cc2c(N[C@H]3CCN(CC(N)=O)C[C@H]3F)cccc2n1CC(F)(F)F [Compound 925A] | + (+ = 0 μM ≤ SC150 < 0.05 μM)
4 | COc1cc(C(=O)O)ccc1NCC#Cc1cc2c(N[C@@H]3CCN(CC(N)=O)C[C@@H]3F)cccc2n1CC(F)(F)F [Compound 926A] | + (+ = 0 μM ≤ SC150 < 0.05 μM)
5 | COc1cc(C(=O)O)ccc1NCC#Cc1cc2c(N[C@H]3CCN(CC(=O)N(C)C)C[C@H]3F)cccc2n1CC(F)(F)F [Compound 927A, 4-{[3-(4-{[(3R,4S)-1-[(dimethylcarbamoyl)methyl]-3-fluoropiperidin-4-yl]amino}-1-(2,2,2-trifluoroethyl)-1H-indol-2-yl)prop-2-yn-1-yl]amino}-3-methoxybenzoic acid] | + (+ = 0 μM ≤ SC150 < 0.05 μM)
6 | COc1cc(C(=O)N[C@@H](CCC(=O)O)C(=O)O)ccc1NCC#Cc1cc2c(N[C@@H]3CCN(C)C[C@@H]3F)cccc2n1CC(F)(F)F [Compound 929A, (2S)-2-[(4-{[3-(4-{[(3S,4R)-3-fluoro-1-methylpiperidin-4-yl]amino}-1-(2,2,2-trifluoroethyl)-1H-indol-2-yl)prop-2-yn-1-yl]amino}-3-methoxyphenyl)formamido]pentanedioic acid] | + (+ = 0 μM ≤ SC150 < 0.05 μM)
7 | COc1cc(C(=O)N[C@@H](CCC(N)=O)C(=O)O)ccc1NCC#Cc1cc2c(N[C@@H]3CCN(C)C[C@@H]3F)cccc2n1CC(F)(F)F [Compound 930A, (2S)-4-carbamoyl-2-[(4-{[3-(4-{[(3S,4R)-3-fluoro-1-methylpiperidin-4-yl]amino}-1-(2,2,2-trifluoroethyl)-1H-indol-2-yl)prop-2-yn-1-yl]amino}-3-methoxyphenyl)formamido]butanoic acid] | + (+ = 0 μM ≤ SC150 < 0.05 μM)
8 | COc1cc(S(=O)(=O)O)ccc1NCC#Cc1cc2c(N[C@@H]3CCN(C)C[C@@H]3F)cccc2n1CC(F)(F)F [Compound 931A, 4-{[3-(4-{[(3S,4R)-3-fluoro-1-methylpiperidin-4-yl]amino}-1-(2,2,2-trifluoroethyl)-1H-indol-2-yl)prop-2-yn-1-yl]amino}-3-methoxybenzene-1-sulfonic acid] | + (+ = 0 μM ≤ SC150 < 0.05 μM)
9 | COC(=O)CC[C@H](NC(=O)c1ccc(NCC#Cc2cc3c(N[C@@H]4CCN(C)C[C@@H]4F)cccc3n2CC(F)(F)F)c(OC)c1)C(=O)OC [Compound 932A, 1,5-dimethyl (2S)-2-[(4-{[3-(4-{[(3S,4R)-3-fluoro-1-methylpiperidin-4-yl]amino}-1-(2,2,2-trifluoroethyl)-1H-indol-2-yl)prop-2-yn-1-yl]amino}-3-methoxyphenyl)formamido]pentanedioate] | + (+ = 0 μM ≤ SC150 < 0.05 μM)
10 | COc1cc(C(=O)N2CCC(N(C)C)CC2)ccc1NCC#Cc1cc2c(N[C@@H]3CCN(C)C[C@@H]3F)cccc2n1CC(F)(F)F [Compound 933A, 2-[3-({4-[4-(dimethylamino)piperidine-1-carbonyl]-2-methoxyphenyl}amino)prop-1-yn-1-yl]-N-[(3S,4R)-3-fluoro-1-methylpiperidin-4-yl]-1-(2,2,2-trifluoroethyl)-1H-indol-4-amine] | + (+ = 0 μM ≤ SC150 < 0.05 μM)
11 | COc1cc(C(=O)O)ccc1NCC#Cc1cc2c(N[C@@H]3CCN(CC(=O)O)C[C@@H]3F)cccc2n1CC(F)(F)F [Compound 934A, 4-{[3-(4-{[(3S,4R)-1-(carboxymethyl)-3-fluoropiperidin-4-yl]amino}-1-(2,2,2-trifluoroethyl)-1H-indol-2-yl)prop-2-yn-1-yl]amino}-3-methoxybenzoic acid] | + (+ = 0 μM ≤ SC150 < 0.05 μM)
12 | CCS(=O)(=O)c1ccc(NCC#Cc2cc3c(N[C@@H]4CCNC[C@@H]4F)cccc3n2CC(F)(F)F)c(OC)c1 [Compound 935A, 2-(3-{[4-(ethanesulfonyl)-2-methoxyphenyl]amino}prop-1-yn-1-yl)-N-[(3S,4R)-3-fluoropiperidin-4-yl]-1-(2,2,2-trifluoroethyl)-1H-indol-4-amine] | + (+ = 0 μM ≤ SC150 < 0.05 μM)
13 | COc1cc(S(C)(=O)=O)ccc1NCC#Cc1cc2c(N[C@@H]3CC[C@H](N)C[C@H]3F)cccc2n1CC(F)(F)F [Compound 936A] | + (+ = 0 μM ≤ SC150 < 0.05 μM)
14 | CN[C@H]1CC[C@@H](Nc2cccc3c2cc(C#CCNc2ccc(S(C)(=O)=O)cc2OC)n3CC(F)(F)F)[C@H](F)C1 [Compound 937A] | + (+ = 0 μM ≤ SC150 < 0.05 μM)
15 | COc1cc(S(C)(=O)=O)ccc1NCC#Cc1cc2c(N[C@@H]3CC[C@H](N(C)C)C[C@H]3F)cccc2n1CC(F)(F)F [Compound 938A] | + (+ = 0 μM ≤ SC150 < 0.05 μM)
16 | COc1cc(S(=O)(=O)CCO)ccc1NCC#Cc1cc2c(N[C@@H]3CCN(C)C[C@@H]3F)cccc2n1CC(F)(F)F [Compound 939A, 2-(4-{[3-(4-{[(3S,4R)-3-fluoro-1-methylpiperidin-4-yl]amino}-1-(2,2,2-trifluoroethyl)-1H-indol-2-yl)prop-2-yn-1-yl]amino}-3-methoxybenzenesulfonyl)ethan-1-ol] | + (+ = 0 μM ≤ SC150 < 0.05 μM)
17 | CCNC(=O)c1ccc(NCC#Cc2cc3c(N[C@@H]4CCN(C)C[C@@H]4F)cccc3n2CC(F)(F)F)c(OC)c1 [Compound 940A, N-ethyl-4-{[3-(4-{[(3S,4R)-3-fluoro-1-methylpiperidin-4-yl]amino}-1-(2,2,2-trifluoroethyl)-1H-indol-2-yl)prop-2-yn-1-yl]amino}-3-methoxybenzamide] | + (+ = 0 μM ≤ SC150 < 0.05 μM)
18 | CCOc1cc(S(C)(=O)=O)ccc1NCC#Cc1cc2c(N[C@@H]3CCNC[C@@H]3F)cccc2n1CC(F)(F)F [Compound 941A, 2-{3-[(2-ethoxy-4-methanesulfonylphenyl)amino]prop-1-yn-1-yl}-N-[(3S,4R)-3-fluoropiperidin-4-yl]-1-(2,2,2-trifluoroethyl)-1H-indol-4-amine] | + (+ = 0 μM ≤ SC150 < 0.05 μM)
